According to paper PMC12396409, “Screening and hit evaluation of a microbial metabolite library against the pathogenic Plasmodium falciparum and Toxoplasma gondii parasites” (International Journal for Parasitology: Drugs and Drug …, 2025):
Read-outs that look alike come from different tables or passages of the source.

Columns and labels:
[1] = tested on: T. gondii RH strain (RH-Tub-eYFP) tachyzoites; assay: microbe, parasite or virus in culture; assay type: cell-based, Toxoplasma gondii; details: 72 h, 72 h; for percent parasite growth at 2 µg/mL: Toxoplasma gondii
[2] = tested on: P. falciparum 3D7 parasites; assay: P. falciparum growth inhibition assay, 2-cycle (120 h treatment), delayed-death screen and dose-response; assay type: cell-based, Plasmodium falciparum; details: for 3) Fold change (72 h/120 h): growth at 72 h / growth at 120 h
[3] = tested on: P. falciparum 3D7 parasites; assay: P. falciparum growth inhibition assay, 1-cycle (72 h treatment), SYBR DNA staining (library screen at 2 μg/mL and dose-response); assay type: cell-based, Plasmodium falciparum
[4] = T. gondii, screen at 2 μg/mL, replicate 1, read-out: Tg_72h_%Growth_Rep1
[5] = T. gondii, screen at 2 μg/mL, replicate 2, read-out: Tg_72h_%Growth_Rep2
[6] = Plasmodium falciparum, 3D7, P. falciparum, 120 h, screen at 2 μg/mL, replicate 1, read-out: Pf_120h_%Growth_Rep1
[7] = Plasmodium falciparum, 3D7, P. falciparum, 120 h, screen at 2 μg/mL, replicate 2, read-out: Pf_120h_%Growth_Rep2
[8] = Plasmodium falciparum, 3D7, P. falciparum, 72 h, screen at 2 μg/mL, replicate 1, read-out: Pf_72h_%Growth_Rep1
[9] = Plasmodium falciparum, 3D7, P. falciparum, 72 h, screen at 2 μg/mL, replicate 2, read-out: Pf_72h_%Growth_Rep2
[10] = T. gondii, screen at 2 μg/mL, replicate 1
[11] = T. gondii, screen at 2 μg/mL, replicate 2
[12] = P. falciparum, 120 h, screen at 2 μg/mL, replicate 1
[13] = P. falciparum, 120 h, screen at 2 μg/mL, replicate 2
[14] = P. falciparum, 72 h, screen at 2 μg/mL, replicate 1
[15] = P. falciparum, 72 h, screen at 2 μg/mL, replicate 2

CO/C1=C\C(C)=C\[C@@H](C)[C@@H](O)[C@@H](C)C/C(C)=C/C=C/[C@H](OC)[C@@H]([C@@H](C)[C@@H](O)[C@H](C)[C@@]2(O)C[C@@H](O)[C@H](C)[C@@H](C(C)C)O2)OC1=O [Bafilomycin A1]
percent parasite growth at 2 µg/mL ([1]; library screen at 2 μg/mL, % growth, replicate 1, read-out: Tg_72h_%Growth_Rep1): -1.58% | percent parasite growth at 2 µg/mL ([1]; library screen at 2 μg/mL, % growth, replicate 2, read-out: Tg_72h_%Growth_Rep2): 0.71% | activity at 2 µg/mL ([2]; Plasmodium falciparum, 3D7, library screen at 2 μg/mL, 120 h, % growth, replicate 1, read-out: Pf_120h_%Growth_Rep1): 5.49% | activity at 2 µg/mL ([2]; Plasmodium falciparum, 3D7, library screen at 2 μg/mL, 120 h, % growth, replicate 2, read-out: Pf_120h_%Growth_Rep2): 9.47% | activity at 2 µg/mL ([3]; Plasmodium falciparum, 3D7, library screen at 2 μg/mL, 72 h, % growth, replicate 1, read-out: Pf_72h_%Growth_Rep1): 3.38% | activity at 2 µg/mL ([3]; Plasmodium falciparum, 3D7, library screen at 2 μg/mL, 72 h, % growth, replicate 2, read-out: Pf_72h_%Growth_Rep2): 2.45%

C/C=C/C1=CC(=O)[C@@H](O)[C@@H]1O [Terrein]
percent parasite growth at 2 µg/mL [1, 4]: 125% | percent parasite growth at 2 µg/mL [1, 5]: 83.6% | activity at 2 µg/mL [2, 6]: 82% | activity at 2 µg/mL [2, 7]: 46.1% | activity at 2 µg/mL [3, 8]: 77.7% | activity at 2 µg/mL [3, 9]: 91.3%

CCCCCCC(=O)CCCCCC/C=C/C[C@@H](O)[C@H](O)[C@@](N)(CO)C(=O)O [BIA-M1219]
Tg_72h_%Growth_Rep1 ([1]; T. gondii, parasite screen at 2 μg/mL, % growth, replicate 1): 113.89% | Tg_72h_%Growth_Rep2 ([1]; T. gondii, parasite screen at 2 μg/mL, % growth, replicate 2): 86.95% | Pf_120h_%Growth_Rep1 ([2]; P. falciparum 3D7, 120 h, parasite screen at 2 μg/mL, % growth, replicate 1): 68.80% | Pf_120h_%Growth_Rep2 ([2]; P. falciparum 3D7, 120 h, parasite screen at 2 μg/mL, % growth, replicate 2): 36.84% | Pf_72h_%Growth_Rep1 ([3]; P. falciparum 3D7, 72 h, parasite screen at 2 μg/mL, % growth, replicate 1): 77.20% | Pf_72h_%Growth_Rep2 ([3]; P. falciparum 3D7, 72 h, parasite screen at 2 μg/mL, % growth, replicate 2): 44.93%

CN1C(=O)c2ccccc2-n2c(nc3ccccc3c2=O)/C1=C\c1ccccc1 [Benzomalvin B]
Tg_72h_%Growth_Rep1 ([1]; library screen at 2 μg/mL, % growth, replicate 1): 108.53% | Tg_72h_%Growth_Rep2 ([1]; library screen at 2 μg/mL, % growth, replicate 2): 82.96% | Pf_120h_%Growth_Rep1 ([2]; library screen at 2 μg/mL, 120 h, % growth, replicate 1): 2.26% | Pf_120h_%Growth_Rep2 ([2]; library screen at 2 μg/mL, 120 h, % growth, replicate 2): 61.47% | Mean ([3]; P. falciparum, 72 h, 2 μg/mL, mean of both replicates, growth (% of control)): 40.89 | Pf_72h_%Growth_Rep1 ([3]; library screen at 2 μg/mL, 72 h, % growth, replicate 1): 1.98% | Pf_72h_%Growth_Rep2 ([3]; library screen at 2 μg/mL, 72 h, % growth, replicate 2): 79.80%

COC(=O)[C@]1(Cc2ccc(O)cc2)OC(=O)C(O)=C1c1ccc(O)cc1 [Butyrolactone II]
Tg_72h_%Growth_Rep1 [1, 10]: 129.35% | Tg_72h_%Growth_Rep2 [1, 11]: 92.93% | Pf_120h_%Growth_Rep1 [2, 12]: 89.95% | Pf_120h_%Growth_Rep2 [2, 13]: 95.11% | Pf_72h_%Growth_Rep1 [3, 14]: 83.73% | Pf_72h_%Growth_Rep2 [3, 15]: 86.44%

COc1cc(=O)oc(/C=C/C=C/C=C/C(C)=C/[C@@]2(C)O[C@H](C)[C@](C)(O)[C@H]2O)c1C [Citreoviridin]
Tg_72h_%Growth_Rep1 [1, 10]: 86.37% | Tg_72h_%Growth_Rep2 [1, 11]: 89.97% | Pf_120h_%Growth_Rep1 [2, 12]: 141.81% | Pf_120h_%Growth_Rep2 [2, 13]: 93.96% | Pf_72h_%Growth_Rep1 [3, 14]: 92.20% | Pf_72h_%Growth_Rep2 [3, 15]: 86.47%

O=C1N[C@@H](C[C@@]2(O)c3ccccc3N3C(=O)C[C@@H](c4ccccc4)N[C@H]32)C(=O)N[C@H]1Cc1ccccc1 [Citreoindole]
Tg_72h_%Growth_Rep1 [1, 10]: 97.80% | Tg_72h_%Growth_Rep2 [1, 11]: 86.03% | 2) Growth (%) at 120 h ([2]; P. falciparum, 2 μg/mL, 120 h): 9.52% | Pf_120h_%Growth_Rep1 [2, 12]: 10.68% | Pf_120h_%Growth_Rep2 [2, 13]: 8.36% | 3) Fold change (72 h/120 h) ([2]; P. falciparum, 2 μg/mL): 2.9 | 1) Growth (%) at 72 h ([3]; P. falciparum, 2 μg/mL, 72 h): 27.30% | Pf_72h_%Growth_Rep1 [3, 14]: 25.03% | Pf_72h_%Growth_Rep2 [3, 15]: 29.57%

CC[C@H]1OC(=O)C[C@@H](O)[C@H](C)[C@@H](O[C@@H]2O[C@H](C)[C@@H](O[C@H]3C[C@@](C)(O)[C@@H](O)[C@H](C)O3)[C@H](N(C)C)[C@H]2O)[C@@H](CC=O)C[C@@H](C)C(=O)/C=C/C(C)=C/[C@@H]1CO[C@@H]1O[C@H](C)[C@@H](O)[C@@H](OC)[C@H]1OC [Tylosin, reference compound]
percent parasite growth at 2 µg/mL [1, 4]: 29.4% | percent parasite growth at 2 µg/mL [1, 5]: 23.4% | 3) Fold change (72 h/120 h) ([2]; P. falciparum, 2 μg/mL): 2.3 | activity at 2 µg/mL ([2]; Plasmodium falciparum, 3D7; P. falciparum, 2 μg/mL, 120 h; read-out: 2) Growth (%) at 120 h): 17.3% | activity at 2 µg/mL [2, 6]: 31.5% | activity at 2 µg/mL [2, 7]: 3.04% | activity at 2 µg/mL ([3]; Plasmodium falciparum, 3D7; P. falciparum, 2 μg/mL, 72 h; read-out: 1) Growth (%) at 72 h): 39.2% | activity at 2 µg/mL [3, 8]: 39.8% | activity at 2 µg/mL [3, 9]: 38.7%

CCO[C@@H]1[C@@H](OC)[C@H](C)O[C@@H](O[C@H]2C[C@H]3[C@@H]4C=C5C(=O)[C@H](C)[C@@H](O)CCC[C@H](CC)OC(=O)C[C@H]5[C@@H]4C=C(C)[C@@H]3C2)[C@@H]1OC [spinosyn L 17-pseudoaglycone, 3'-Ethoxy-]
Tg_72h_%Growth_Rep1 ([1]; T. gondii, parasite screen 2 μg/mL, % growth, replicate 1): 97.87% | Tg_72h_%Growth_Rep2 ([1]; T. gondii, parasite screen 2 μg/mL, % growth, replicate 2): 88.47% | Pf_120h_%Growth_Rep1 ([2]; P. falciparum, 120 h, parasite screen 2 μg/mL, % growth, replicate 1): 6.02% | Pf_120h_%Growth_Rep2 ([2]; P. falciparum, 120 h, parasite screen 2 μg/mL, % growth, replicate 2): 1.27% | Pf_72h_%Growth_Rep1 ([3]; P. falciparum, 72 h, parasite screen 2 μg/mL, % growth, replicate 1): 17.82% | Pf_72h_%Growth_Rep2 ([3]; P. falciparum, 72 h, parasite screen 2 μg/mL, % growth, replicate 2): 8.15%
